Assays:
[1] = system: autoantibodies in RA sera; assay: 79 RA patients tested for anti-CCP2, anti-CCP3, anti-VCP1 and anti-VCP2 (FIG. 1); format: binding, human
From the text: FIG. 1. […] The presence of different populations of autoantibodies is depicted in the block diagram. Number of RA sera positive (+) or negative (−) to anti-CCP2, anti-CCP3, anti-VCP1 [peptide of formula (VI)], and anti-VCP2 [peptide of formula (V)] are shown above the diagram.
Noteworthy, 7/79 (9%) anti-CCP2 and anti-CCP3 negative sera are positive to the peptide of formula (VI); 2/79 (3%) anti-CCP2 and anti-CCP3 negative sera are positive to peptide of formula (V); 1/79 (1%) anti-CCP2 and anti-CCP3 negative serum is positive to both peptides of formula (V) and formula (VI). Thus, formula (V) and (VI) allow to detect antibodies in a subgroup of anti-CCP negative RA patients (FIG. 1).

[2] = system: anti-citrullinated peptides/proteins antibodies (ACPA) in serum; conditions: 206 disease controls
Procedure: The MAP of the citrullinated peptide antigens according to the invention was diluted to a concentration of 20 μg/ml in phosphate buffered saline (PBS) and loaded into the wells of a polystyrene micro-titration plate (50 μl/well). […] Upon completion of the coating period, the wells containing the antigen, plus an equal number of wells which were used as controls, were treated for 1 hour at room temperature (RT) with 3% bovine serum albumin (BSA) in PBS. The patients' serum samples (diluted 1:200 in a buffer constituted by 1% BSA, 0.05% Tween X-100 in PBS) were then loaded onto the plate (50 μl/well) and left to incubate for 3 hours at RT. After the incubation period, one washing was performed with 1% PBS Tween X-100 and two washings were performed with PBS (150 μl/well). […] Upon completion of the incubation, after three washings as described above, the alkaline phosphatase substrate (p-nitrophenyl phosphate) was added to the wells and, in the presence of the enzyme, it produced a yellow product measurable by spectrophotometric techniques at a wavelength of 405 nm; its quantity was proportional to the titre of antibodies bound. The results of the test were expressed as the percentage of positivity, calculated by dividing the absorbance of each serum sample by the absorbance of a positive serum sample the value of which was set arbitrarily at 100.

[3] = system: anti-CP IgG antibodies in RA patients' serum; conditions: cut-off 97.5th percentile of normal controls
Procedure: The ability to recognize specific antibodies in RA patients by MAP of formula (V), in comparison with the MAP of formula (VI) was evaluated by ELISA.
MAP of formula (V) and MAP of formula (VI) were diluted respectively to a concentration of 20 μg/ml and 5 μg/ml in PBS, loaded into the wells of a polystyrene micro-titration plate (50 μl/well), and left overnight at +4° C. Upon completion of the coating period, the wells were treated for 1 hour at RT with 3% BSA in PBS. The patients' serum samples (diluted 1:200 in a buffer constituted by 1% BSA, 0.05% Tween X-100 in PBS) were then loaded onto the plate (50 μl/well) and left to incubate for 3 hours at RT. After the incubation period, one washing was performed with 1% PBS Tween X-100 and two washings were performed with PBS (150 μl/well). An anti human-IgG antibody conjugated to the enzyme alkaline phosphatase (50 μl/well), diluted 1:3000 in 1% PBS BSA, 0.05% Tween X-100, was incubated for 3 hours at RT with stirring. Upon completion of the incubation, after three washings as described above, p-nitrophenyl phosphate was added to the wells and the absorbance at a wavelength of 405 nm was determined. The results of the test were expressed as the percentage of positivity, calculated by dividing the absorbance of each serum sample by the absorbance of a positive serum sample the value of which was set arbitrarily at 100.
Serum samples of 100 patients suffering from RA were tested by this method.

[4] = system: anti-CP antibodies (IgG, IgM, IgA) in patients' serum samples
Procedure: The MAP of the citrullinated peptide antigens according to the invention was diluted to a concentration of 20 μg/ml in phosphate buffered saline (PBS) and loaded into the wells of a polystyrene micro-titration plate (50 μl/well). […] Upon completion of the coating period, the wells containing the antigen, plus an equal number of wells which were used as controls, were treated for 1 hour at room temperature (RT) with 3% bovine serum albumin (BSA) in PBS. The patients' serum samples (diluted 1:200 in a buffer constituted by 1% BSA, 0.05% Tween X-100 in PBS) were then loaded onto the plate (50 μl/well) and left to incubate for 3 hours at RT. After the incubation period, one washing was performed with 1% PBS Tween X-100 and two washings were performed with PBS (150 μl/well). […] The antibody (50 μl/well) was then incubated for 3 hours at RT with agitation. Upon completion of the incubation, after three washings as described above, the alkaline phosphatase substrate (p-nitrophenyl phosphate) was added to the wells and, in the presence of the enzyme, it produced a yellow product measurable by spectrophotometric techniques at a wavelength of 405 nm; its quantity was proportional to the titre of antibodies bound. The results of the test were expressed as the percentage of positivity, calculated by dividing the absorbance of each serum sample by the absorbance of a positive serum sample the value of which was set arbitrarily at 100.
Serum samples of 104 patients suffering from RA, 97 normal healthy subjects (NHS), and 194 disease controls (systemic lupus erythematosus, systemic scleroderma, Sjogren syndrome, mixed cryoglobulinemia, psoriasic arthritis, ankylosing spondilytis, rheumatic polymialgia and infectious mononucleosis) were tested by this method using the peptide of formula (V).

[5] = system: anti-VCP2 antibodies (IgG) from RA sera; assay: ELISA of affinity-purified anti-VCP2 antibodies from RA sera (Example 5); format: binding, human; conditions: four preparations from 4 different RA sera
Procedure: FIG. 4. Isolation of anti-VCP2 antibodies from RA sera was performed according to the method described in example 4.
A citrullinated peptide or MAP according to the present invention was conjugated to CNBr-activated sepharose according to standard procedures known by one skilled in the art. Total immunoglobulins from sera containing anti-CP antibodies were precipitated with 50% saturated ammonium sulfate; the precipitates were dissolved in phosphate buffer (pH 7.4) and dialyzed overnight against PBS. Enriched immunoglobulin preparations were applied to the column, and the flowthrough was collected for subsequent analysis. The column was extensively washed with 20 mM Na2HPO4, 150 mM NaCl (pH 7.2), and the antibodies bound to the column were eluted by 0.1 M glycine buffer (pH 2.8) (0.5 ml/fraction), immediately neutralized with 50 μl Tris 1M (pH 8.0), and dialyzed overnight against PBS. The anti-CP antibody content in the eluates and flowthrough was tested by ELISA.

Substance: (G Q S Cit G Q S Cit G Cit G Cit G Cit G Cit G Cit G K G)4 K2 K beta-Alanine [VCP2]
- RA sera containing antibodies reacting with either one of the two MAP ([1]; comparison of MAP of formula (V) and MAP of formula (VI)): 15%
- anti-CCP2 and anti-CCP3 negative sera positive to the peptide ([1]; of 79 RA patients): 3%
- anti-CCP2 and anti-CCP3 negative serum positive to both peptides ([1]; of 79 RA patients (1/79)): 1%
- positive RA sera ([1]; population of 79 RA patients): 52%
- specificity in detecting ACPA in RA patients ([2]; 100 RA, 100 NHS): high specificity
- antibodies detected in disease controls ([2]; in particular IM and SLE): no antibodies were detected
- anti-CP MAP antibodies found in the RA cohort ([3]; 100 RA patients, IgG): 64%
- specificity [3]: 95%
- anti-CP antibodies found in normal healthy subjects and disease controls ([4]; 97 NHS and 194 disease controls): less than 5%
- anti-CP IgA antibodies found in RA serum samples ([4]; 104 RA patients (41/104), cut-off 97.5th percentile of normal controls): 40%
- anti-CP IgM antibodies found in RA serum samples ([4]; 104 RA patients (48/104), cut-off 97.5th percentile of normal controls): 46%
- anti-CP IgG antibodies found in RA serum samples ([4]; 104 RA patients (67/104), cut-off 97.5th percentile of normal controls): 64%
- reactivity of purified anti-VCP2 IgG with the antigen [5]: very high reactivity

Source: patent US8900880B2, “Viral citrullinated peptides and uses thereof” (Toscana Biomarkers S.R.L., priority 2009, dated 2014)
